Results from patent US8685963B2, “Compounds that inhibit NFκB and BACE1 activity” (The Trustees of Columbia University in the city of New York, priority 2008, dated 2014).

What was measured:
[1] = system: NFkB; assay: TNFα-induced NFkB nuclear translocation high-content screen in HUVEC; type: cell-based, human
Excerpt: FIG. 5A-B depicts (A) The two-color dual luciferase based assay. IκBα is fused to a luciferase emitting greenlight (CBG68), while a red light-emitting luciferase (CBR) is present in its native state. Both luciferases are regulated by binding of the tet repressor to the tet operator (TO) binding site (TO), allowing simultaneous induction of the luciferases by the CMV promoter upon addition of doxycycline and test compounds. The CBR protein serves to normalize for non-specific effects, while the levels of the IκBα-CBG68 protein increase uniquely with inhibition of the NFκB pathway leading to IκBα degradation. (B) The nuclear translocation assay. TNFα stimulation results in nuclear translocation of NFκB, which is detected by immunofluorescence using an anti-p65 antibody and a secondary antibody labeled with an Alexa 647 fluorophore (A647). […] In the assay, nuclear translocation of the endogenous p65 RelA subunit of NFkB, at 30 min post-stimulation, was monitored using fluorescent antibody detection and an automated imaging platform. (Mayer et al., 2006, Methods Enzyme 414:266) NFkB inhibitors in this assay, such as IkBα stabilizers, were detected as compounds that interfered with p65 translocation to the nucleus.

[2] = system: IkBα; assay: dual luciferase IkBα stabilization screen in OCI-Ly3; type: cell-based; settings: OCI-Ly3 cells
Excerpt: FIG. 5A-B depicts (A) The two-color dual luciferase based assay. IκBα is fused to a luciferase emitting greenlight (CBG68), while a red light-emitting luciferase (CBR) is present in its native state. Both luciferases are regulated by binding of the tet repressor to the tet operator (TO) binding site (TO), allowing simultaneous induction of the luciferases by the CMV promoter upon addition of doxycycline and test compounds. The CBR protein serves to normalize for non-specific effects, while the levels of the IκBα-CBG68 protein increase uniquely with inhibition of the NFκB pathway leading to IκBα degradation. (B) The nuclear translocation assay. TNFα stimulation results in nuclear translocation of NFκB, which is detected by immunofluorescence using an anti-p65 antibody and a secondary antibody labeled with an Alexa 647 fluorophore (A647). […]
To identify modulators of IkBα stability in ABC-DLBCL lines, such as small molecules inhibiting IKK or proteasome activity, changes in the level of an exogenous IkBα-luciferase fusion reporter expressed by an NFkB-insensitive promoter were measured. […] Upon doxycycline induction of both luciferase reporters, compounds that increased green luminescence with minimal effects on the red luminescence signal were scored as IkBα stabilizers. […]

[3] = system: NFkB; assay: NFkB-dependent β-lactamase reporter assay (NFkB-bla), TNFα stimulated; type: cell-based
Excerpt: By way of example, and not of limitation, such an assay may comprise contacting a cell expressing the NFκβ-dependent reporter construct, and monitoring the level of β-lactamase expression, wherein a decrease in expression compared to a cell not contacted with the compound indicates a reduction in NFκB activity.
The above-described assays were validated using known inhibitors of the NFkB pathway (FIG. 6). The proteasome inhibitor MG-132 (1) 16 served as a positive control for the IkBα stabilization assay. The translocation assay used BAY 11-7082 (2), an agent that inhibits the TNFα-induced phosphorylation of IkBα. […] Additionally, a substituted 2-(thiophen-2-yl)quinazoline 3 which acts as an inhibitor of NFkB and Aβ1 mediated transcriptional activation (Palanki et al., 2003, Bioorg. Med. Chem. Lett. 13:4077) was used as a positive control in a secondary assay that used TNFα to stimulate NFkB-dependent expression of a β-lactamase reporter (NFkB-bla in FIG. 7). This compound also served as a negative control for the dual luciferase IkBa stabilization assay.

## O=S(=O)(Nc1cccc2cccnc12)c1ccccc1 [Compound 4, N-(quinolin-8-yl)benzenesulfonamide]
[1]
  identified in NFkB translocation screen: identified
[2]
  identified in IkBα stabilization screen: identified
[3]
  ability to inhibit the NFkB pathway (β-lactamase reporter): confirmed the ability of these compounds to inhibit the NFkB pathway
